Data on eight compounds can be found in patent US12459951B2, “Compounds that interact with RAS superfamily proteins for treatment of cancers, inflammatory diseases, rasopathies, and fibrotic disease” (SHY Therapeutics, LLC, priority 2022, dated 2025).

pIC50: −log10 of the molar value. Counter-ions that a name gives are not always drawn. Some results are limits rather than exact numbers.

One test concerns IL6. As to the kind of experiment: IL-6 Quantification Assay (ELISA), LPS-stimulated RAW 264.7. The note with it: Mus musculus, RAW264.7; read-out: IL-6: % inh. It counts as cell-based. On the set-up: inhibition: dose or concentration left out as unconfirmed.
Another test concerns TNF-alpha. As to the kind of experiment: TNF-alpha Quantification Assay (ELISA), LPS-stimulated RAW 264.7. It counts as cell-based. The note with it: Mus musculus, RAW264.7; at 10 μM; read-out: TNFα: % inh.
The subject of another test is Akt phosphorylation. As to the kind of experiment: Akt Phosphorylation Assay (western blot), Panc-1. The note with it: at 10 μM, * = activation. In kind it is cell-based, human. How it is done: Protocol for Western Akt Cell-Based Phosphorylation Assay
This assay is referred to as the “Akt Phosphorylation Assay” throughout this application.
Human tumor-derived pancreatic cancer cell line Panc-1 (expressing KRas G12D mutant) was purchased from American Type Culture Collection and grown in complete DMEM-High Glucose supplemented with penicillin (100 U/mL), streptomycin (100 μg/mL), and 10% heat-inactivated FBS at 37° C. in a humidified incubator with 5% CO2.
Method 1: Cells were plated at 350000 cells/well density in a 12-well plate, allowed 3 hours to adhere to the plate, then starved in the appropriate medium in the presence of 0.5% FBS overnight. The small molecules to be tested were added to the cells in the final concentration of 10 μM in the presence of 0.3% DMSO for 6 hours incubation at 37° C. Next, cells were stimulated with 1.5 ng/ml EGF for 15 minutes then cells were lysed with lysis buffer containing 1% Triton X-100, EDTA, and Halt™ Protease & Phosphatase Inhibitor Cocktail (Thermo Scientific). Protein concentration was assessed by BCA protein assay (Thermo Scientific). Phosphorylation level of Akt was determined by western blot.
Method 2: Cells were plated at 350000 cells/well density in a 12-well plate in 10% FBS. The next day small molecules to be tested were added to the cells in the final concentration of 10 μM in the presence of 0.3% DMSO for 6 hours incubation at 37° C. For IC50 value determination, serial dilutions of compounds were added to cells under the same conditions. Next, cells were lysed with lysis buffer containing 1% Triton X-100, EDTA, and Halt™ Protease & Phosphatase Inhibitor Cocktail (Thermo Scientific). Protein concentration was assessed by BCA protein assay (Thermo Scientific). Phosphorylation level of Akt was determined by western blot.
Western blot protocol: Equal amounts of protein (15-50 μg) were separated by SDS-PAGE and transferred to nitrocellulose membranes (Invitrogen by Thermo Fisher Scientific). The membrane was stained with Ponceau S Stain (Boston BioProducts) to verify uniform protein loading. Membranes were blocked with 10% milk and phosphorylation levels of Akt were assessed by incubating overnight at 4° C. with anti-phospho-Akt (Ser473) antibody (Cell Signaling) followed by HRP-conjugated secondary antibody (Jackson Immunoresearch, West Grove, PA). Bands were incubated in Amersham ECL Prime Western Blotting Detection Reagent (GE Healthcare) and visualized using the ChemiDoc MP imaging system (Bio-Rad).
In general terms: Immunoblotting shows a protein as a band on a membrane.

The subject of test [1] is MiaPaca-2 (expressing KRAS G12C mutant). Put plainly: Proliferation Assay (Cell Viability Assay). It counts as cell-based. The note with it: Homo sapiens, MIA PaCa-2; read-out: Proliferation in MiaPaca-2: IC50. As to the method:
Protocol for Proliferation Assay
This assay is referred to as the “Proliferation Assay” or “Cell Viability Assay” throughout this application.
Cell lines: Human tumor-derived cell lines were purchased from American Type Culture Collection. Human tumor-derived pancreatic cancer cell line MiaPaca-2 (expressing KRAS G12C mutant) and Panc-1 (expressing KRas G12D mutant), and Human non-small cell lung cancer (NSCLC) cell line A549 (expressing KRas G12S mutant) were grown in complete DMEM-High Glucose medium. Human colon cancer cell line SW-620 (expressing KRas G12V mutant) was grown in RPMI 1640 medium. All cell lines were supplemented with penicillin (100 U/mL), streptomycin (100 μg/mL), and 10% heat-inactivated FBS at 37° C. in a humidified incubator with 5% CO2.
Method: Cells were plated at 2000 to 5000 cells/well density in 96-wells plate and cultured overnight. Small molecules to be tested were added to the cells in the final concentration of 10 μM in the presence of 0.3% DMSO and 10% FBS and incubated for 2-4 days at 37° C. in a humidified incubator with 5% CO2. For IC50 value determination, serial dilutions of compounds were added to cells under the same conditions.
Assay: At the end of the incubation period, cell viability was determined using the CellTiter 96® Aqueous One Solution Cell Proliferation Assay according to manufacturer specifications (Promega, Madison, WI). The percentage of small molecules inhibition of cellular proliferation was calculated from raw data.
Cell lines: these Human tumor-derived cell lines were purchased from American Type Culture Collection. Human tumor-derived pancreatic cancer cell line MiaPaca-2 (expressing KRAS G12C mutant) and Panc-1 (expressing KRas G12D mutant), and Human non-small cell lung cancer (NSCLC) cell line A549 (expressing KRas G12S mutant), and Human melanoma cell line A375 (wild type Kras) were grown in complete DMEM-High Glucose medium. Human tumor-derived pancreatic cancer cell lines SU86.86 (expressing KRas G12D mutant), BxPC3 (expressing wild type K-Ras), and Human non-small cell lung cancer (NSCLC) cell lines NCI-H441 (expressing KRas G12S mutant), NCI-H1975 (expressing wild type KRas), NCI-H358 (expressing KRas G12C mutant), NCI-H1299 (expressing NRas Q61H mutant), and Human colon cancer cell line SW-620 (expressing KRas G12V mutant), Human triple negative breast cancer cell line HCC-1806 (expressing wild type KRas), and Human tumor-derived multiple myeloma cell line MM.1R (expressing wild type KRAS), were grown in RPMI 1640 medium. Human tumor-derived breast cancer cell line BT-549 (expressing wild type KRAS) was grown in RPMI 1640 medium in the presence of 11.8U insulin. Human tumor-derived pancreatic cancer cell line HPAF-II (expressing KRas G12D mutant), Human triple negative breast cancer cell line BT-20 (expressing wild type KRas), and Human colon cancer cell line LS123 (expressing KRas G12S mutant), were grown in EMEM medium. Human tumor-derived pancreatic cancer cell line CF-PAC1 (expressing KRas G12V mutant) was frown in IMDM medium, and Human colon cancer cell line HT29 (expressing wild type KRas) was grown in McCoy's 5A medium. The colon cancer cell line GP2d (expressing KRas G12D mutant) was purchased from MilliporeSigma and grown in DMEM-High Glucose medium. All cell lines were supplemented with penicillin (100 U/mL), streptomycin (100 μg/mL), and 10% heat-inactivated FBS at 37° C. in a humidified incubator with 5% CO2.
Method: Cells were plated at 2000 to 5000 cells/well density in 96-wells plate and cultured overnight. Small molecules that were tested were added to the cells in the final concentration of 10 μM in the presence of 0.3% DMSO and 10% FBS, and incubated for 2-4 days at 37° C. in a humidified incubator with 5% CO2. For IC50 value determination, serial dilutions of compounds were added to cells under the same conditions.

Take `Cc1c(-c2ccn(C3CC3)n2)cn2nc(-c3nccn3C)nc(Nc3cc(OC4CC4)ccn3)c12` [Compound 142, N-(4-Cyclopropoxypyridin-2-yl)-6-(1-cyclopropyl-1H-pyrazol-3-yl)-5-methyl-2-(1-methyl-1H-imidazol-2-yl)pyrrolo[2,1-f][1,2,4]triazin-4-amine]: the inhibition in the test with IL6 is 25 to 49%. Also, the inhibition at 10 µM with TNF-alpha worked out at 0%. Moreover, the “% inh of Akt phosphorylation in Panc-1” value in the test on Akt phosphorylation is reported as “A (1-25% inhibition)”. Moreover, the pIC50 in test [1] is over 6.82.
The corresponding values for `COc1cnc(Nc2nc(-c3nccn3C)nn3cc(-c4ccn(C)n4)c(C)c23)nc1.Cl` [Compound 117, N-(5-Methoxypyrimidin-2-yl)-5-methyl-2-(1-methyl-1H-imidazol-2-yl)-6-(1-methyl-1H-pyrazol-3-yl)pyrrolo[2,1-f][1,2,4]triazin-4-amine hydrochloride salt] are 1 to 24%, 1 to 24%, “B (26-49% inhibition)” and over 6.82.
`CO[C@H]1C[C@H](Nc2nc(-c3nccn3C)nn3cc(-c4cccnc4)c(C)c23)C1` [Compound 151, N-((1r,3r)-3-Methoxycyclobutyl)-5-methyl-2-(1-methyl-1H-imidazol-2-yl)-6-(pyridin-3-yl)pyrrolo[2,1-f][1,2,4]triazin-4-amine]: the inhibition with IL6 worked out at 0%. Besides, the inhibition at 10 µM with TNF-alpha turned out to be 0%. For the same compound, the “% inh of Akt phosphorylation in Panc-1” value in the test with Akt phosphorylation was “C* (46-84% activation)”. In addition, in test [1], the pIC50 is under 6.00.
As to `CO[C@H]1C[C@H](Nc2nc(-c3nccn3C)nn3cc(-c4ccn(C)n4)c(C)c23)C1` [Compound 103, N-((1r,3r)-3-Methoxycyclobutyl)-5-methyl-2-(1-methyl-1H-imidazol-2-yl)-6-(1-methyl-1H-pyrazol-3-yl)pyrrolo[2,1-f][1,2,4]triazin-4-amine hydrochloride salt], the inhibition in the test with IL6 came out at 0%. Also, in the test on TNF-alpha, the inhibition at 10 µM turned out to be 0%. In addition, the “% inh of Akt phosphorylation in Panc-1” value in the test with Akt phosphorylation is “C* (46-84% activation)”. Further, in test [1], the pIC50 was under 6.00.
As to `Cc1c(-c2ccn(C)n2)cn2nc(-c3nccn3C)nc(Nc3ccn(C4CC4)n3)c12` [Compound 111, N-(1-Cyclopropyl-1H-pyrazol-3-yl)-5-methyl-2-(1-methyl-1H-imidazol-2-yl)-6-(1-methyl-1H-pyrazol-3-yl)pyrrolo[2,1-f][1,2,4]triazin-4-amine], the inhibition in the test with IL6 was 75 to 100%. In addition, the inhibition at 10 µM with TNF-alpha lay in the range of 50 to 74%. The “% inh of Akt phosphorylation in Panc-1” value with Akt phosphorylation is listed as “D* (85-100% activation)”. Also, the pIC50 in test [1] is 6.30 to 6.82.
The like results for `Cc1c(-c2ccn(C)n2)cn2nc(-c3nccn3C)nc(Nc3ccncn3)c12.Cl` [Compound 116, 5-Methyl-2-(1-methyl-1H-imidazol-2-yl)-6-(1-methyl-1H-pyrazol-3-yl)-N-(pyrimidin-4-yl)pyrrolo[2,1-f][1,2,4]triazin-4-amine hydrochloride salt] were, in that order, 25 to 49%, 0%, “D* (85-100% activation)” and over 6.82.
With `Cc1c(-c2ccn(C3CC3)n2)cn2nc(-c3nccn3C)nc(Nc3cc(O)ccn3)c12` [Compound 150, 2-((6-(1-Cyclopropyl-1H-pyrazol-3-yl)-5-methyl-2-(1-methyl-1H-imidazol-2-yl)pyrrolo[2,1-f][1,2,4]triazin-4-yl)amino)pyridin-4-ol], the inhibition with IL6 was in the range of 1 to 24%. Further, the inhibition at 10 µM in the test on TNF-alpha turned out to be 0%. The “% inh of Akt phosphorylation in Panc-1” value in the test with Akt phosphorylation is listed as “B* (26-49% activation)”. For the same compound, the pIC50 in test [1] was under 6.00.
Turning to `Cc1c(-c2ccn(C(C)C)n2)cn2nc(-c3ccccn3)nc(O)c12` [Compound 8, 6-(1-Isopropyl-1H-pyrazol-3-yl)-5-methyl-2-(pyridin-2-yl)pyrrolo[2,1-f][1,2,4]triazin-4-ol], the inhibition with IL6 turned out to be 0%. Further, the inhibition at 10 µM in the test with TNF-alpha worked out at 0%. For the same compound, in the test with Akt phosphorylation, the “% inh of Akt phosphorylation in Panc-1” value is on record as 0 (0% inhibition). For the same compound, in test [1], the pIC50 is under 6.00.
